Drawing on patent US20260355217A1, “HPK1 INHIBITOR, PREPARATION METHOD THEREFOR, AND USE THEREOF” (Beijing Earthwise Technology Co., Ltd., priority 2022, published 2026), this text covers IC50 and EC50 for 3 compounds.

One assay deals with HPK1 (Homo sapiens, UniProt Q92918). Briefly: HPK1 HTRF Kinase Assay. Type of assay: biochemical. The note with it: 1000 μM ATP, 50 nM HPK1, STK1 substrate, 120 minutes. The protocol: Assay Example 2 HPK1 HTRF Kinase Assay
The assay was performed in a 384-well plate (Greier, Cat #784075) with a total reaction system of 20 μL. 1×kinase buffer (5*enzyme buffer, 5 mM MgCl2, 0.1% BSA, 1 mM DTT), […] and 1000 µM ATP, and 10 μL of Detection Mix (0.25 nM STK antibody, 62.5 nM XL665) were included in the reaction mixture. The reaction was initiated by adding 50 nM HPK1. After 120 minutes of reaction, the assay was terminated by adding 10 μL of Detection Mix. After being incubated at room temperature for 60 minutes, the assay plate was read by EnVision multi-function microplate reader to read the FRET signal (the ratio of HTRF 665/615 was calculated from the readings at 665 nm and 615 nm).
The ratio of the signal at 665 nm to the signal at 615 nm was converted to the percentage of inhibition. Inhibition %=(maximum value−sample value)/(maximum value−minimum value)×100. The minimum value refers to the value measured in a well without enzyme but with DMSO and substrate, and the maximum value refers to the value measured in a well with DMSO, enzyme and substrate. IC50 values were calculated by XLFit (version 5.3.1.3) in Excel. Equation: Y=Bottom+(Top−Bottom)/(1+(IC50/X)^HillSlope).
(In general: Time-resolved FRET reads energy transfer from a long-lived donor to a nearby acceptor.)

Assay [1] deals with human Pan T cells (IL-2 release). Briefly: Human Pan T Cell IL-2 ELISA. In kind it is cell-based. As to the method: Assay Example 4 Human Pan T Cell IL-2 ELISA
A compound was dissolved in DMSO to 10 mM, and then diluted three-fold with DMSO to 9 dosages in a 96-well plate. Then, 10 μL of the diluted compound sample was transferred to a 96-well plate with 90 μL of cell culture medium, and the plate was shaken for 5 minutes. Then, 5 μL of the diluted compound sample was transferred to a 96-well plate with 120 μL of cell culture medium, and the plate was shaken for 5 minutes. According to the experimental design diagram, 50 μL of the diluted compound sample was transferred to a cell plate. Final concentrations of the compound in this assay were 10000.00, 5000, 2500, 1250, 625, 312.5, 156.25, 78.125 and 39.063 nM.
The assay was conducted in a 96-well plate. On the first day of the assay, Anti-CD3 was added to the 96-well plate and incubated in a 4 °C refrigerator overnight. On the second day of the assay, human Pan T cells were recovered, centrifuged and counted. The cell density was adjusted to 1*10^6 cells/ml. Then, 100 μL of cells were added to the 96-well plate washed with PBS and added with Anti-CD3; according to the experimental design diagram, 50 μL of diluted Anti-CD28 and 50 μL of the diluted compound were added to each well, centrifuged, and the cell plate was placed and incubated in an incubator for 48 hours; after 48 hours, the plate was centrifuged and the supernatant was collected for IL-2 ELISA.
The signal value of light absorption was converted into a multiple. Multiple=sample value/the average value of control wells. The average value of control wells refers to the value measured in wells with DMSO added. EC50 values were calculated by XLFit (version 5.3.1.3) in Excel. Equation: Y=Bottom+(Top−Bottom)/(1+(EC50/X)^HillSlope).

The target of assay [2] is T1, pSLP76 (Phospho-SLP-76 (Ser376)), Jurkat E6-1 cells (Homo sapiens, UniProt Q92918).
T1 construct: read-out phospho-SLP-76 (Ser376) HTRF
Put plainly: Phospho-SLP-76 (Ser376) HTRF Assay in Jurkat E6-1 cells. The note with it: compound 4 hours, then anti-CD3 20 minutes. Type of assay: cell-based. As to the method: Assay Example 3 Phospho-SLP-76 (Ser376) HTRF Assay
A compound was dissolved in DMSO to 10 mM, and then diluted three-fold with DMSO to 10 dosages in a 96-well plate. Then, 3 μL of the diluted compound sample was transferred to a 96-well plate with 97 μL of cell culture medium, and the plate was shaken for 5 minutes. According to the experimental design diagram, 7.5 μL of the diluted compound sample was transferred to a cell plate. Final concentrations of the compound in this assay were 10000.00, 3333.33, 1111.11, 370.37, 123.46, 41.15, 13.72, 4.57, 1.52 and 0.51 nM.
In this assay, the density of Jurkat E6-1 cells was maintained between 3*10^5 to 3*10^6 cells/mL. The cell culture was replaced with fresh culture medium every 2 to 3 days (depending on the cell density). 30 μL of Jurkat E6-1 (300,000 cells) was added to a 96-well plate and incubated in a 37 °C incubator for 1 hour. Then, according to the experimental design diagram, compounds (6×, 7.5 μL) were added to treat the cells for 4 hours, respectively. After 4 hours, purified anti-human anti-CD3 antibodies (6×, 7.5 μL) were added to treat the cells for 20 minutes. After 20 minutes, 15 μL of cell lysis buffer (4×) was added, and the cells were lysed at 25 °C with shaking (250 rpm) for 1 hour. Then, according to the experimental design diagram, 16 μL of cell lysate was transferred to a 384-well plate using a pipette. After the transfer, 4 μL of antibody detection mixture was added. After being placed at room temperature overnight, the plate was read by EnVision multi-function microplate reader to read the FRET signal (the ratio of HTRF 665/615 was calculated from the readings at 665 nm and 615 nm).
The ratio of the signal at 665 nm to the signal at 615 nm was converted to the percentage of inhibition. Inhibition %=(maximum value−sample value)/(maximum value−minimum value)×100. The minimum value refers to the signal value of a well without anti-CD3 antibody stimulation during the treatment of cells, and the maximum value refers to the signal value of a well with anti-CD3 antibody stimulation but without the compound during the treatment of cells. IC50 values were calculated by XLFit (version 5.3.1.3) in excel. Equation: Y=Bottom+(Top−Bottom)/(1+(IC50/X)^HillSlope).

Setting [3] is: Homo sapiens, T-cell, 48 h, Anti-CD3/Anti-CD28, IL-2 ELISA.

T1 sequence (Q92918 whole entry): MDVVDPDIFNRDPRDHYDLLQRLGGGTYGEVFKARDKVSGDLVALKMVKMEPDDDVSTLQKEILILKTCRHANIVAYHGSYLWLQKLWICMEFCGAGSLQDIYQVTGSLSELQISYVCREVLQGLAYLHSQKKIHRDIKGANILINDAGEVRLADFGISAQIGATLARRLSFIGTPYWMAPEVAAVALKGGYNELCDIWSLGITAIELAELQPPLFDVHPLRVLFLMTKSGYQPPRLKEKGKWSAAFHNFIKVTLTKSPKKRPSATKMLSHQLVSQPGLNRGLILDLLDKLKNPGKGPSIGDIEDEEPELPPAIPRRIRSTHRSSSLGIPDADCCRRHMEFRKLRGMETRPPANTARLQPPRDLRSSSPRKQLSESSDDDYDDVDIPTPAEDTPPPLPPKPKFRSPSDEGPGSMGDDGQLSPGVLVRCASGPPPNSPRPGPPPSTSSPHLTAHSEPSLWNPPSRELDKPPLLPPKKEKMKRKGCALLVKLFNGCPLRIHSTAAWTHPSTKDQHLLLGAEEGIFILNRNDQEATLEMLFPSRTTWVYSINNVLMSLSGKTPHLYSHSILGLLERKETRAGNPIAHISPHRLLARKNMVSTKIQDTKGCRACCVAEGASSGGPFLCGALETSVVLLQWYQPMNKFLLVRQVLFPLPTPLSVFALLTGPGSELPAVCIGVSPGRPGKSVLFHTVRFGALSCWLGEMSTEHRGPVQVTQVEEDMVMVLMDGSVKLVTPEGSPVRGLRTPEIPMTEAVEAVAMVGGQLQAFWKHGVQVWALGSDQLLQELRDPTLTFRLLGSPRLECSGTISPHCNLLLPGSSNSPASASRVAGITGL
Chain of HPK1 (Q92918 whole entry): as above

Consider `COc1cccn2c(-c3cc4c(c5c3CCNC5=O)Nc3ccc(N5CCOCC5)cc3C4(C)C)cnc12` [Example 13], for which the results for the IC50 (against HPK1; in assay [2]) were 9.32 nM and 24.4 nM, respectively. Moreover, in assay [1] (setting [3]), the concentration for a half-maximal effect (EC50) amounted to 3.12 nM.

Turning to `COc1cccc2c(-c3nc4c(c5c3CCNC5=O)Nc3ccc(N5CCOCC5)cc3C4(C)C)cnn12` [Example 15], in assay [1] (Anti-CD3/Anti-CD28, 48 hours, IL-2 ELISA), the EC50 amounted to 3.95 nM. 72.2 nM corresponded to half-maximal inhibition in assay [2] (IC50).

The compound `CC1(C)c2cc(N3CCOCC3)ccc2Nc2c1cc(-c1cncc(N3CCOCC3)c1)c1c2C(=O)NC1` [Example 85] returned a half-inhibitory concentration (IC50) against HPK1 of 36.2 nM. Moreover, in assay [1] (setting [3]), it took 69.4 nM to reach a half-maximal effect (EC50).

The IC50 is the concentration at which inhibition is half-maximal. Low values mean greater potency, high ones weaker potency. For orientation: EC50 means the midpoint of the concentration-response curve. Read a high EC50 as weaker potency.
